{"source": "patent US11510886B2", "about": "“Metformin amino acid compounds and methods of using the same” (Laboratorios Silancs S.A. DE C.V., priority 2016, dated 2022)", "key": {"[1]": {"system": "rat model of streptozotocin-induced diabetes", "assay": "Blood glucose levels in rat model of streptozotocin-induced diabetes, 14 days oral", "settings": "mean ± SD; for Blood glucose levels before TI/RI administration, Day −3 (before STZ administration): rats, baseline before STZ and before first TI/RI administration"}, "GLUT4": {"system": "GLUT4", "assay": "GLUT4-GFP transport to plasma membrane in NIH-3T3-L1 adipocytes", "assay_type": "cell-based, Mice", "settings": "confocal microscopy (FIG. 75)", "protocol": "FIG. 75. […] NIH-3T3-L1 cells were transfected with a construction expressing GLUT4 fused with Green Fluorescent Protein-GFP (Addgene). Transfected cells were selected by flow cytometry, taking advantage of GFP fluorescence, and cultured in DMEM supplemented with 10% FBS. […] Images were analyzed with the WCIF ImageJ software to detect colocalization of GPBP (red) with GLUT4 (green). […]."}, "[2]": {"settings": "STZ-diabetic male rats, mean ± SD; for Absolute body weight, Day −1 / Absolute body weight, Day −2 (distribution of groups): before first TI/RI administration"}, "C2C12 myotubes [3]": {"system": "C2C12 myotubes", "assay": "Glucose concentration in C2C12 myotube culture medium", "assay_type": "cell-based, Mice", "settings": "for glucose consumption in normoglycemia: glucose adjusted to 100 mg/100 mL, 10 mM (FIGS. 68A-B)", "protocol": "FIG. 67. Hypoglycemic activity ex vivo. Glucose concentration in myocyte culture medium, treated with the control, SLN1, or SLN10. […]. The final glucose concentration in the culture medium was determined with a Glucocard (Arkray). […].\nGlucose concentration in culture media was determined with a Glucocard (Arkray). […].\nFor this purpose, the evolution of glucose uptake was studied in the culture medium of myotubes in response to different molecules studied (FIG. 67)."}, "C2C12 myotubes [4]": {"system": "C2C12 myotubes", "assay": "Glucose in C2C12 myotubes cultured with M1 macrophage conditioned medium", "assay_type": "cell-based, Mice", "settings": "macrophages treated with 10 mM, glucose adjusted to 100 mg/100 mL (FIG. 95)", "protocol": "FIG. 95. C2C12 myotubes, treated with a conditioned RAW264.7 M1 macrophages medium (stimulated with LPS and IFN-γ [M1]), accumulate glucose in the culture medium: SLN compounds reduce the “hyperglycemic” effect of the M1 medium. […]; then, the culture media were collected, and their glucose concentration adjusted to 100 mg/100 mL and used to culture C2C12 myoblasts that had been previously differentiated to myotubes in DMEM supplemented with 2% horse serum for 5 days. The glucose concentration in myotubes was determined at several times with a Glucocard (Arkray). C2C12 myotubes, cultured with conditioned media of non-stimulated (cells) macrophages, or similarly stimulated but not treated with a SLN (M1), were used as controls. The initial glucose levels (time 0) are used as a reference (100%) in each of the series.\n[…]. Then the culture media were collected, their glucose concentration adjusted to 100 mg/100 mL and used to culture C2C12 myoblasts that had been previously differentiated to myotubes in DMEM supplemented with 2% horse serum for 5 days. The glucose concentration of the myotube cultures was determined at different times with Glucocard (Arkray). The controls used were the C2C12 cultured with media conditioned with no stimulated macrophages (cells) or with M1 conditioned media. The initial glucose levels (time 0) were used as a reference (100%) in each series."}, "(NZB×NZW) F1 mice": {"system": "(NZB×NZW) F1 mice", "assay": "Proteinuria and renal lupus in (NZB×NZW) F1 mice", "assay_type": "in vivo", "settings": "for number of mice with a pathological grade above 3: kidneys at week 35 (FIG. 84)"}, "RAW264.7 macrophages [5]": {"system": "RAW264.7 macrophages", "assay": "GPBP secretion by RAW264.7 macrophages stimulated with LPS and IFN-γ (ELISA)", "assay_type": "cell-based", "protocol": "FIG. 91. […]. FIG. 94. […]. In A, an assay scheme is shown; […]. […] In B, the relative expression of IL-10 in RAW264.7 macrophages cultured with conditioned media, obtained as specified in A, is shown. The analysis was carried out by quantitative RT and PCR, using HPRT-1 as a normalizer. In this case, the reference point were cells treated with a conditioned medium in absence of N26 (RQ=1 value), and the increased IL-10 expression was verified; the analysis included non-stimulated cells cultured in a fresh, non-conditioned medium (cells).\n[…]; then, they were stimulated with LPS (0.5 μg/mL) and IFN-γ (20 ng/mL) for 16 hours, after which the GPBP concentration in culture media was determined by ELISA.\nFIG. 104. […]. RAW264.7 cells (control cells) were treated as indicated (10 mM) for 2 hours and subsequently stimulated with LPS (0.5 μg/mL) and IFN-γ (20 ng/mL) for 16 hours; […].\nFIG. 105. […]. then, the GPBP concentration in culture media was determined by ELISA."}, "RAW264.7 macrophages [6]": {"system": "RAW264.7 macrophages", "assay": "IL-10 expression in RAW264.7 macrophages stimulated with LPS and IFN-γ", "assay_type": "cell-based", "protocol": "FIG. 92. […]. After several incubation times, cells were processed as shown in FIG. 79 for RT-qPCR analysis, and IL-10 relative quantification (RQ) was determined with a specific probe (Taqman®, Life Technologies) using HPRT-1 as a normalizer and non-stimulated cells as a reference point (time 0). In the Table in FIG. 92, the area under the curve (AUC) is indicated for each of the series.\nFIG. 93. The IL-10 expression depends on GPBP-1. […]. […] The silencing efficacy was tested by Western blot with RAW264.7 (WT) and pSi-GPBP-1 cell lysates (50 μg), using specific antibodies (right).\nFIG. 94. The IL-10 expression depends on cGPBP-1. In A, an assay scheme is shown; […]. […] In B, the relative expression of IL-10 in RAW264.7 macrophages cultured with conditioned media, obtained as specified in A, is shown. The analysis was carried out by quantitative RT and PCR, using HPRT-1 as a normalizer. In this case, the reference point were cells treated with a conditioned medium in absence of N26 (RQ=1 value), and the increased IL-10 expression was verified; the analysis included non-stimulated cells cultured in a fresh, non-conditioned medium (cells)."}}, "note": "“Also recorded” adds a separate entry of the source. Structures can show the parent of a compound that is named as a salt. Where two headings read alike, the source gives them in different places.", "data": [{"compound": "CN(C)C(=N)N=C(N)N", "note": "[Metformin hydrochloride, metformin hydrochloride, reference compound]", "values": [{"measurement": "Blood glucose levels before TI/RI administration, Day −3 (before STZ administration)", "setting": "[1]", "value": "120.00 ± 8.72", "unit": "mg/dL"}, {"measurement": "distribution of GPBP and GLUT4 in L1 adipocytes", "setting": "GLUT4", "value": "low presence in secretory vesicles"}, {"measurement": "Absolute body weight, Day −3 (before STZ administration)", "setting": "[2]; baseline before STZ and before first TI/RI administration", "value": "231.30 ± 11.83", "unit": "g"}, {"measurement": "Absolute body weight, Day −1", "setting": "[2]", "value": "210.43 ± 11.90", "unit": "g"}, {"measurement": "Absolute body weight, Day −2 (distribution of groups)", "setting": "[2]", "value": "223.73 ± 10.88", "unit": "g"}, {"measurement": "glucose consumption in normoglycemia", "setting": "C2C12 myotubes [3]", "value": "equally induce glucose consumption"}, {"measurement": "glucose concentration in myotubes kept in M1 macrophage-conditioned medium", "setting": "C2C12 myotubes [4]; listed as SLN1, hydrochloride", "value": "slowed progression towards “hyperglycemia”"}, {"measurement": "glucose concentration in myotubes kept in M1 macrophage-conditioned medium", "setting": "C2C12 myotubes [4]; listed as metformin HCl, hydrochloride", "value": "slowed down the progression towards hyperglycemia"}, {"measurement": "deaths", "setting": "(NZB×NZW) F1 mice; from week 33 onwards", "value": "began to die"}, {"measurement": "number of mice with a pathological grade above 3", "setting": "(NZB×NZW) F1 mice", "value": 7}, {"measurement": "GPBP secretion", "setting": "RAW264.7 macrophages [5]; 10 mM, LPS 0.5 μg/mL and IFN-γ 20 ng/mL (FIG. 91)", "value": "did not induce significantly the secretion of GPBP"}, {"measurement": "IL-10 expression", "setting": "RAW264.7 macrophages [6]; 10 mM, LPS and IFN-γ (FIG. 92)", "value": "increase IL-10 expression"}, {"measurement": "dependence of IL-10 expression on GPBP expression", "setting": "RAW264.7 macrophages [6]; pSi-GPBP-1 macrophages (FIG. 93)", "value": "virtually GPBP independent"}]}, {"compound": "metformin lysinate", "values": [{"measurement": "Blood glucose levels before TI/RI administration, Day −1", "setting": "[1]; STZ-diabetic rats, before first TI/RI administration, n.d. = all values beyond ULOD of glucometer (600 mg/dl), § n=1, ¢ n=2", "value": "577.00^§ ± n.d.^§ mg/dL"}, {"measurement": "Blood glucose levels before TI/RI administration, Day −3 (before STZ administration)", "setting": "[1]", "value": "114.00 ± 6.93", "unit": "mg/dL"}, {"measurement": "distribution of GPBP and GLUT4 in L1 adipocytes", "setting": "GLUT4", "value": "widely located in the plasma membrane"}, {"measurement": "Absolute body weight, Day −1", "setting": "[2]", "value": "212.73 ± 0.23", "unit": "g"}, {"measurement": "Absolute body weight, Day −2 (distribution of groups)", "setting": "[2]", "value": "217.67 ± 9.71", "unit": "g"}, {"measurement": "glucose consumption in normoglycemia", "setting": "C2C12 myotubes [3]", "value": "equally induce glucose consumption"}, {"measurement": "anti-hyperglycaemic activity (glucose in myotube medium)", "setting": "C2C12 myotubes [3]; initial glucose 450 mg/100 mL, 10 mM, last 18 hours (FIG. 67), listed as SLN10", "value": "greater effect than SLN1; also recorded: higher than that of compound SLN1"}, {"measurement": "glucose concentration in myotubes kept in M1 macrophage-conditioned medium", "setting": "C2C12 myotubes [4]", "value": "reduced the glucose concentration to hypoglycemic levels"}, {"measurement": "glucose concentration in myotubes kept in M1 macrophage-conditioned medium", "setting": "C2C12 myotubes [4]; listed as SLN10", "value": "took them to “hypoglycemic” levels"}, {"measurement": "proteinuria", "setting": "(NZB×NZW) F1 mice; 100 mg/kg/day, IP 5 days from week 16, then oral in drinking water, vs control, listed as SLN10", "value": "most effective; also recorded: significantly less proteinuria; also recorded: reduced proteinuria"}, {"measurement": "autoantibody (anti-ssDNA IgG) titers", "setting": "(NZB×NZW) F1 mice; FIG. 85, Control vs. SLN10 p=0.0238", "value": "reduces antibodies titers; also recorded: reduced titers by half"}, {"measurement": "number of mice with a pathological grade above 3", "setting": "(NZB×NZW) F1 mice", "value": 3}, {"measurement": "circulating GPBP levels (cGPBP)", "setting": "(NZB×NZW) F1 mice; plasma, before steady increase of proteinuria (FIG. 86)", "value": "showed no increase"}, {"measurement": "GPBP secretion", "setting": "RAW264.7 macrophages [5]", "value": "induces cGPBP secretion; also recorded: induced GPBP secretion strongly"}, {"measurement": "biological activity (GPBP secretion) with equimolar MgCl2 or CaCl2", "setting": "RAW264.7 macrophages [5]", "value": "reduce the biological activity"}, {"measurement": "cGPBP levels in conditioned medium", "setting": "RAW264.7 macrophages [5]", "value": "approximately 200 ng/mL"}, {"measurement": "IL-10 expression", "setting": "RAW264.7 macrophages [6]", "value": "increase IL-10 expression; also recorded: markedly superior"}, {"measurement": "dependence of IL-10 expression on GPBP expression", "setting": "RAW264.7 macrophages [6]", "value": "depended largely on the GPBP expression"}]}]}
